For one assay, the system named is beta cells. The following applies: HDAC inhibition, presumably by decreasing NF-κB transactivation; cited from earlier work.
In assay [1] the test system is INS-1E cells. Nature of the assay: Cellular ATP levels (CellTiter-Glo) in cytokine-treated INS-1E cells; suppression of cytokine-induced beta-cell apoptosis. It counts as cell-based, rat. The procedure: The compounds were analyzed for activity utilizing methods described in Chou et al. (ACS Chem. Biol. 2010 Aug. 20; 5(8):729-34).
INS-1E cells were seeded at 10,000 cells per well using a Multidrop Combi (Thermo Labsystems) in white optical 384-well plates (Corning Life Sciences). After overnight incubation, medium was removed and 50 μL of RPMI containing 1% FBS and a combination of cytokines (10 ng mL-^1 IL-1β, 50 ng mL^−1 IFN-γ, 25 ngmL^−1 TNF-α) was added to every well. Using libraries of compounds dissolved in DMSO and a CyBi-Well pin-transfer robot (CyBio Corp.), 0.1 μL of each compound was added. After 48 h, medium was removed and 20 μL of CellTiter-Glo reagent was added. Luminescence was measured after 10 min of incubation using an EnVision plate reader (PerkinElmer).
Instrument output files were processed using Pipeline Pilot (Accelrys) and input to MATLAB (The MathWorks) for data normalization. Compound performance scores relative to a distribution of mock-treated (DMSO) wells were calculated using a revised version of the scoring system underlying ChemBank. (Seiler et al., Nucleic Acids Res. 36, D351-359, 2008). The role of replicate treatments was further developed as follows: first, mock-treatment distributions were modeled using all mock-treated wells measured on a single day, regardless of their nominal replicate; second, per-compound scores weighted each in-plate background-subtracted measurement by the uncertainty in that measurement, using the method of maximum likelihood. The uncertainty in a single background-subtracted measurement was estimated using the number of mock-treated wells on the plate and, as a measure of the assay noise, the standard deviation of the per-day mock-treatment distribution. The signal, a weighted average of differences, was scaled by the noise, the standard deviation of the mock treatment distribution.
INS-1E cells were seeded at 10,000 cells/well using a Multidrop Combi (Thermo Labsystems) in white optical 384-well plates (Corning Life Sciences). After overnight incubation, medium was removed and 50 μL RPMI containing the treated compound, 1% FBS and a combination of cytokines (10 ng/mL IL-1β, 50 ng/mL IFN-γ, 25 ng/mL TNF-α) was added to every well. After incubation for 48 hr, medium was removed and 20 μL CellTiter-Glo reagent was added. Luminescence was measured after 10-min incubation using an EnVision plate reader (PerkinElmer).
(In general: ATP-based viability assays read luminescence as a measure of living cells.)

Assay [2] relates to INS-1E cells. Nature of the assay: Caspase-3 activity assay (Caspase-Glo 3/7) in cytokine-treated INS-1E cells. The following applies: cytokines, 48 h, Caspase-Glo 3/7. It counts as cell-based, rat. The procedure:
INS-1E cells were seeded at 5,000 cells per well in white optical 384-well plates and treated as described for highthroughput screening. After treatment with cytokines and compounds for 48 h, medium was removed and 20 μL Caspase-Glo 3/7 reagent was added. Luminescence was measured after 2 h of incubation using an EnVision plate reader.

Setting [3] is: INS-1E cells, cytokines IL-1β, IFN-γ, TNF-α, 48 h, CellTiter-Glo, read-out: CTG EC50 in HTS.

Among the data in patent publication US8741905B2, “Compounds and methods for treating autoimmune diseases” (The Broad Institute, Inc., priority 2010, dated 2014) are cytokine-induced beta-cell death and EC50 values, retold here.

As a reminder, the EC50 is the concentration needed to bring the measured effect to its halfway point.

Regarding `O=C(CCCCCCC(=O)Nc1ccccc1)NO` [SAHA, suberoylanilide hydroxamic acid], in the assay on beta cells, the cytokine-induced beta-cell death result is given as “can prevent cytokine-induced beta-cell death”.

In the case of `CC(/C=C/C(=O)NO)=C\[C@@H](C)C(=O)c1ccc(N(C)C)cc1` [TSA, trichostatin A], the cytokine-induced beta-cell death result in the assay on beta cells is “can prevent cytokine-induced beta-cell death”.

Regarding `COc1ccc(S(=O)(=O)N(C)C[C@@H]2Oc3c(NC(=O)Nc4cccc5ccccc45)cccc3C(=O)N([C@@H](C)CO)C[C@H]2C)cc1C` [Compound 20A, N-(((2R,3R)-5-((S)-1-hydroxypropan-2-yl)-3-methyl-10-(3-(naphthalen-1-yl)ureido)-6-oxo-3,4,5,6-tetrahydro-2H-benzo[b][1,5]oxazocin-2-yl)methyl)-4-methoxy-N,3-dimethylbenzenesulfonamide], the half-maximal effective concentration (EC50) was 0.314 µM in the assay with INS-1E cells [1] (Rattus norvegicus, INS-1E, assay not named, read-out: EC50); above 0.1 µM in the assay with INS-1E cells [1] (Rattus norvegicus, INS-1E cells, cytokines IL-1β, IFN-γ, TNF-α, 48 h, CellTiter-Glo, read-out: CTG EC50 in HTS); above 0.1 µM in the assay on INS-1E cells [2] (Rattus norvegicus).

For the compound `COc1ccc(S(=O)(=O)N(C)C[C@@H]2Oc3c(NC(=O)Nc4cccc(-c5ncccn5)c4)cccc3C(=O)N([C@@H](C)CO)C[C@H]2C)cc1` [Compound 39A], the EC50 in the assay with INS-1E cells [1] (setting [3]) and in the assay with INS-1E cells [2] was above 25 µM throughout.

As to `C[C@@H]1CN([C@@H](C)CO)C(=O)c2cccc(NC(=O)Nc3cccc4ccccc34)c2O[C@H]1CN(C)S(=O)(=O)c1ccc(-c2ccccc2)cc1` [Compound 13A], the half-maximal effective concentration (EC50) in the assay on INS-1E cells [1] (setting [3]) and with INS-1E cells [2] was above 25 µM each time.
